Experimental findings from patent publication US20260297042A1, “BIARYLAMIDE DERIVATIVES AND THEIR USE AS PKMYT1 INHIBITORS” (CANCER RESEARCH TECHNOLOGY LIMITED, priority 2023, published 2026) are described below.

For one experiment, the target named is T1, Human PKMYT1 (Homo sapiens, UniProt Q99640).
T1 construct: Human PKMYT1 75-362 was cloned as a TEV cleavable 6xHis fusion; 6xHis (TEV cleavable) (cleaved yes); made in house; host or cells: bacterial cells
T1 sequence (Q99640 75-362): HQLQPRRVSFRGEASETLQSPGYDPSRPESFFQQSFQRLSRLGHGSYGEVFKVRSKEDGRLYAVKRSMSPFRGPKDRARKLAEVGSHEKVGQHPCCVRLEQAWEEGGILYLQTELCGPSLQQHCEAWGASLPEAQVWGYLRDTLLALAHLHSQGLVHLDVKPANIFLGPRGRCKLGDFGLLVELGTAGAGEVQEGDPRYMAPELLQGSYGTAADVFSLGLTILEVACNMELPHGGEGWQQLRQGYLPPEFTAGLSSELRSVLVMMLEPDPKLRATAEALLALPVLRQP
Description: PKMYT1 biochemical ADP-Glo enzymatic assay. The conditions noted are these: ADP-Glo; 15 nM PKMYT1 kinase domain, 500 µM ATP, 60 minutes at 26° C.; banded. The method, boiled down:
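IC50 derived from luminescence (ADP-Glo Max) after PKMYT1 kinase domain, 15 nM, turned over 500 µM ATP for 60 min at 26 °C. Buffer contained 10 mM MgCl2, 1 mM EGTA and 0.01% Brij-35 at pH 7.5.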
Background: ADP-Glo turns the ADP formed in a reaction into a luminescent signal.

For a further experiment, the target named is T2, WEE1 (Homo sapiens, UniProt P30291).
T2 construct: purchased Thermo Fisher PR7373A
T2 sequence (P30291 whole entry): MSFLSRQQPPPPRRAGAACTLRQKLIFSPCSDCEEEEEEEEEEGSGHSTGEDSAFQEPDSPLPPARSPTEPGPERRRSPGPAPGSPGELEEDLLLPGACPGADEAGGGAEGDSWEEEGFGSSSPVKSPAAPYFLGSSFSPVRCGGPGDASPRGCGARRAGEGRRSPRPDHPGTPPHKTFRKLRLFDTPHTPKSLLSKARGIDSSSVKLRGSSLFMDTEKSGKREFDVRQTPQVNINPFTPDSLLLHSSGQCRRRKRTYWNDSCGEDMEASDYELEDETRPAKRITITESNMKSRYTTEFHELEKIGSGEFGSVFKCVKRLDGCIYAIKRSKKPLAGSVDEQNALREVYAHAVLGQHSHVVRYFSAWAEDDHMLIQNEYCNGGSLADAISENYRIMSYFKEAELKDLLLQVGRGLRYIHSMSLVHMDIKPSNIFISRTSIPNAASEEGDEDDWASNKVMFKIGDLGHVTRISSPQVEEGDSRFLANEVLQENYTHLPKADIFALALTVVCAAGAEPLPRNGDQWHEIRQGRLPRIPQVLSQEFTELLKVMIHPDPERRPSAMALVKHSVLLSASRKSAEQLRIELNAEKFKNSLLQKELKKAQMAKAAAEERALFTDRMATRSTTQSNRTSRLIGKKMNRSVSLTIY
Description: Selectivity versus WEE1 assay (ADP-Glo enzymatic assay). The experiment is classed as biochemical. The conditions noted are these: banded; for IC50: ADP-Glo, 15 nM WEE1, 60 minutes at 26° C.; for PKMYT1 vs. WEE1 selectivity: fold difference in selectivity for PKMYT1 over WEE1, ">N" = at least in this band but could be higher. The method, boiled down: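 Inhibition is measured as reduced ADP production, detected by luminescence with ADP-Glo, after enzyme (15 nM) and 30 µM ATP react for 60 min at 26° C in 1% DMSO-containing HEPES buffer, pH 7.5. Data are accepted only if replicate IC50s fall within 3-fold and r2 exceeds 0.9.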

What is called IC50 is the midpoint of a concentration-inhibition curve.

Where a name gives a salt, the structure may show the parent alone.

In the case of `Cc1ccc(O)c(C)c1NC(=O)c1cnc(Nc2ccn(CC(=O)N3CCC4(CC3)CCN(C(=O)OC(C)(C)C)C4)n2)s1` [BAA-155, tert-butyl 8-[2-[3-[5-[(3-hydroxy-2,6-dimethyl-phenyl)carbamoyl]thiazol-2-ylamino]pyrazol-1-yl]acetyl]-2,8-diazaspiro[4.5]decane-2-carboxylate], the values for the IC50 at Human PKMYT1 and on WEE1 were less than 0.05 µM and more than 11 µM, respectively. For the same compound, the “PKMYT1 vs. WEE1 selectivity” value on WEE1 is “X (100-<1000 fold)”.
Taken in the same sequence, the figures for `Cc1ccc(O)c(C)c1NC(=O)c1cnc(Nc2ccn(CC(=O)N3C[C@@H](C)N(C(=O)OC(C)(C)C)[C@@H](C)C3)n2)s1` [BAA-156] were less than 0.05 µM, more than 11 µM and “Y (1000-5000 fold)”.
`Cc1ccc(O)c(C)c1NC(=O)c1cnc(Nc2ccn(CC(=O)NCC3CCN(C(=O)OC(C)(C)C)CC3)n2)s1` [BAA-157]: the figures for the IC50 against Human PKMYT1 and against WEE1 were 0.05 to 1 µM and more than 11 µM, respectively. The “PKMYT1 vs. WEE1 selectivity” value on WEE1 is recorded as “X (100-<1000 fold)”.
Regarding `Cc1ccc(O)c(C)c1NC(=O)c1cnc(Nc2ccn(CC(=O)NCCN3CCN(C(=O)OC(C)(C)C)CC3)n2)s1` [BAA-158], the IC50 was 0.05 to 1 µM at Human PKMYT1 and more than 11 µM on WEE1. Further, the “PKMYT1 vs. WEE1 selectivity” value at WEE1 is on record as “X (100-<1000 fold)”.
The corresponding values for `Cc1ccc(O)c(C)c1NC(=O)c1cnc(Nc2ccn(CC(=O)NCCCO)n2)s1` [BAA-159, N-(3-hydroxy-2,6-dimethyl-phenyl)-2-[[1-[2-(3-hydroxypropylamino)-2-oxo-ethyl]pyrazol-3-yl]amino]thiazole-5-carboxamide] are less than 0.05 µM, more than 11 µM and “Y (1000-5000 fold)”.
Taken in the same sequence, the figures for `Cc1ccc(O)c(C)c1NC(=O)c1cnc(Nc2ccn(CC(=O)N3CCC[C@@H](O)C3)n2)s1` [BAA-161] were less than 0.05 µM, more than 11 µM and “Y (1000-5000 fold)”.
With `Cc1ccc(O)c(C)c1NC(=O)c1cnc(Nc2ccn(CC(=O)N3CC[C@H](O)C3)n2)s1` [BAA-162, N-(3-hydroxy-2,6-dimethyl-phenyl)-2-[1-[2-[(3S)-3-hydroxypyrrolidin-1-yl]-2-oxo-ethyl]pyrazol-3-ylamino]thiazole-5-carboxamide], the IC50 against Human PKMYT1 was less than 0.05 µM. Further, on WEE1, the IC50 is more than 11 µM and the “PKMYT1 vs. WEE1 selectivity” value was “Y (1000-5000 fold)”.
The corresponding values for `Cc1ccc(O)c(C)c1NC(=O)c1cnc(Nc2ccn(CC(=O)N3CCC[C@H](O)C3)n2)s1` [BAA-163] are less than 0.05 µM, more than 11 µM and “Y (1000-5000 fold)”.
On to `Cc1ccc(O)c(C)c1NC(=O)c1cnc(Nc2ccn(CC(=O)N[C@H](C)CO)n2)s1` [BAA-164], for which the IC50 at Human PKMYT1 was less than 0.05 µM. In addition, on WEE1, the IC50 was more than 11 µM and the “PKMYT1 vs. WEE1 selectivity” value is given as “Y (1000-5000 fold)”.
Taken in the same sequence, the figures for `Cc1ccc(O)c(C)c1NC(=O)c1cnc(Nc2ccn(CC(=O)N[C@@H](C)CO)n2)s1` [BAA-165] were less than 0.05 µM, more than 11 µM and “Y (1000-5000 fold)”.
Taken in the same sequence, the figures for `COCCNC(=O)Cn1ccc(Nc2ncc(C(=O)Nc3c(C)ccc(O)c3C)s2)n1` [BAA-166, N-(3-hydroxy-2,6-dimethyl-phenyl)-2-[[1-[2-(2-methoxyethylamino)-2-oxo-ethyl]pyrazol-3-yl]amino]thiazole-5-carboxamide] were less than 0.05 µM, more than 11 µM and “Y (1000-5000 fold)”.
The corresponding values for `Cc1ccc(O)c(C)c1NC(=O)c1cnc(Nc2ccn(CC(=O)NCCN3CCCC3)n2)s1` [BAA-167] are 0.05 to 1 µM, more than 11 µM and “X (100-<1000 fold)”.
`Cc1ccc(O)c(C)c1NC(=O)c1cnc(Nc2ccn(CC(=O)NCCN3CCCCC3)n2)s1` [BAA-168, N-(3-hydroxy-2,6-dimethyl-phenyl)-2-[[1-[2-oxo-2-[2-(1-piperidyl)ethylamino]ethyl]pyrazol-3-yl]amino]thiazole-5-carboxamide (hydrochloride)] gave an IC50 on Human PKMYT1 of 0.05 to 1 µM. Besides, on WEE1, the IC50 was more than 11 µM and the “PKMYT1 vs. WEE1 selectivity” value is “W (10-<100 fold)”.
Turning to `Cc1ccc(O)c(C)c1NC(=O)c1cnc(Nc2ccn(CC(=O)N3CCC(C)(O)CC3)n2)s1` [BAA-169, N-(3-hydroxy-2,6-dimethyl-phenyl)-2-[[1-[2-(4-hydroxy-4-methyl-1-piperidyl)-2-oxo-ethyl]pyrazol-3-yl]amino]thiazole-5-carboxamide], the IC50 against Human PKMYT1 was less than 0.05 µM; on WEE1, more than 11 µM. Further, on WEE1, the “PKMYT1 vs. WEE1 selectivity” value is listed as “Y (1000-5000 fold)”.
Taken in the same sequence, the figures for `Cc1ccc(O)c(C)c1NC(=O)c1cnc(Nc2ccn(CC(=O)NC[C@@H](C)O)n2)s1` [BAA-170, N-(3-hydroxy-2,6-dimethyl-phenyl)-2-[[1-[2-[[(2R)-2-hydroxypropyl]amino]-2-oxo-ethyl]pyrazol-3-yl]amino]thiazole-5-carboxamide] were less than 0.05 µM, more than 11 µM and “Y (1000-5000 fold)”.
For `Cc1ccc(O)c(C)c1NC(=O)c1cnc(Nc2ccn(CC(=O)N3CCCN(C)CC3)n2)s1` [BAA-171], the IC50 against Human PKMYT1 was less than 0.05 µM; against WEE1 it was more than 11 µM. In addition, on WEE1, the “PKMYT1 vs. WEE1 selectivity” value is “X (100-<1000 fold)”.
Taken in the same sequence, the figures for `Cc1ccc(O)c(C)c1NC(=O)c1cnc(Nc2ccn(CC(=O)N3C[C@@H]4C[C@H]3CN4C)n2)s1` [BAA-172] were less than 0.05 µM, more than 11 µM and “X (100-<1000 fold)”.
The corresponding values for `Cc1ccc(O)c(C)c1NC(=O)c1cnc(Nc2ccn(CC(=O)N3CCC3)n2)s1` [BAA-175, 2-[[1-[2-(azetidin-1-yl)-2-oxo-ethyl]pyrazol-3-yl]amino]-N-(3-hydroxy-2,6-dimethyl-phenyl)thiazole-5-carboxamide] are less than 0.05 µM, more than 11 µM and “Y (1000-5000 fold)”.
Turning to `Cc1ccc(O)c(C)c1NC(=O)c1cnc(Nc2ccn(CC(=O)N3CCC(F)(F)C3)n2)s1` [BAA-176], the IC50 is less than 0.05 µM at Human PKMYT1 and more than 11 µM on WEE1. The “PKMYT1 vs. WEE1 selectivity” value on WEE1 was “Y (1000-5000 fold)”.
Consider `CCN1CCN(C(=O)Cn2ccc(Nc3ncc(C(=O)Nc4c(C)ccc(O)c4C)s3)n2)CC1` [BAA-177], for which the IC50 at Human PKMYT1 was less than 0.05 µM. Moreover, on WEE1, the IC50 was more than 11 µM and the “PKMYT1 vs. WEE1 selectivity” value is “X (100-<1000 fold)”.
As for `Cc1ccc(O)c(C)c1NC(=O)c1cnc(Nc2ccn(CC(=O)N3CCN(C(C)C)CC3)n2)s1` [BAA-178], the IC50 against Human PKMYT1 was 0.05 to 1 µM; against WEE1, more than 11 µM. Moreover, on WEE1, the “PKMYT1 vs. WEE1 selectivity” value is recorded as “X (100-<1000 fold)”.
Taken in the same sequence, the figures for `Cc1ccc(O)c(C)c1NC(=O)c1cnc(Nc2ccn(CC(=O)N3CC4CCC(C3)N4C(=O)OC(C)(C)C)n2)s1` [BAA-180] were less than 0.05 µM, more than 11 µM and “Y (1000-5000 fold)”.
Taken in the same sequence, the figures for `Cc1ccc(O)c(C)c1NC(=O)c1cnc(Nc2ccn(CC(=O)N3CCN(C4CC4)CC3)n2)s1` [BAA-182, 2-[[1-[2-(4-cyclopropylpiperazin-1-yl)-2-oxo-ethyl]pyrazol-3-yl]amino]-N-(3-hydroxy-2,6-dimethyl-phenyl)thiazole-5-carboxamide] were less than 0.05 µM, more than 11 µM and “Y (1000-5000 fold)”.
